Results as given in the NIST ThermoML archive (doi:10.1016/j.fluid.2015.07.030).
Numbers after ± are expanded uncertainties.

Assay: refractive index (other wavelength) (dimensionless); xn = mol fraction of the nth substance listed
Conditions: 95.99 kPa, Liquid, Standard Abbe refractometry

OCCOCCOCCO [triethylene glycol] + O
refractive index
Conditions	Wavelength=404.7 nm	Wavelength=435.8 nm	Wavelength=486.1 nm	Wavelength=546.1 nm	Wavelength=587.6 nm	Wavelength=589.3 nm	Wavelength=632.8 nm	Wavelength=644 nm	Wavelength=706.5 nm
303.15 K, x2 = 0	–	–	–	–	–	1.45267 ± 0.00033	1.4511 ± 0.00033	1.45075 ± 0.00033	1.44903 ± 0.00033
303.15 K, x2 = 0.1056	–	–	–	–	–	1.45131 ± 0.00033	1.44977 ± 0.00033	1.44941 ± 0.00033	1.44768 ± 0.00033
303.15 K, x2 = 0.2069	–	–	–	–	–	1.44969 ± 0.00032	1.44815 ± 0.00032	1.4478 ± 0.00032	1.44609 ± 0.00032
303.15 K, x2 = 0.3104	–	–	–	–	–	1.44605 ± 0.00032	1.44452 ± 0.00032	1.44417 ± 0.00032	1.44246 ± 0.00032
303.15 K, x2 = 0.4844	–	–	–	–	–	1.44261 ± 0.00032	1.44109 ± 0.00032	1.44075 ± 0.00032	1.43906 ± 0.00032
303.15 K, x2 = 0.5016	–	–	–	–	–	1.44163 ± 0.00032	1.44012 ± 0.00032	1.43978 ± 0.00032	1.4381 ± 0.00032
303.15 K, x2 = 0.5952	–	–	–	–	–	1.43507 ± 0.00032	1.43356 ± 0.00032	1.43321 ± 0.00032	1.43153 ± 0.00032
303.15 K, x2 = 0.6016	–	–	–	–	–	1.43519 ± 0.00032	1.43369 ± 0.00032	1.43334 ± 0.00032	1.43165 ± 0.00032
303.15 K, x2 = 0.6788	–	–	–	–	–	1.42871 ± 0.00032	1.42724 ± 0.00032	1.42689 ± 0.00032	1.4252 ± 0.00032
303.15 K, x2 = 0.7835	–	–	–	–	–	1.41945 ± 0.00032	1.41799 ± 0.00032	1.41765 ± 0.00032	1.41598 ± 0.00032
303.15 K, x2 = 0.8184	–	–	–	–	–	1.41428 ± 0.00032	1.41284 ± 0.00032	1.41249 ± 0.00032	1.41081 ± 0.00032
303.15 K, x2 = 0.8473	–	–	–	–	1.40803 ± 0.00032	1.40797 ± 0.00032	1.40655 ± 0.00032	1.4062 ± 0.00032	1.40454 ± 0.00032
303.15 K, x2 = 0.8719	–	–	–	–	1.40124 ± 0.00032	1.40118 ± 0.00032	1.39977 ± 0.00032	1.39943 ± 0.00032	1.39777 ± 0.00032
303.15 K, x2 = 0.8926	–	–	–	–	1.39369 ± 0.00032	1.39363 ± 0.00032	1.39224 ± 0.00032	1.39191 ± 0.00032	1.39029 ± 0.00032
303.15 K, x2 = 0.9106	–	–	–	–	1.38817 ± 0.00032	1.38811 ± 0.00032	1.38673 ± 0.00032	1.38639 ± 0.00032	1.38476 ± 0.00032
303.15 K, x2 = 0.9254	–	–	–	–	1.37798 ± 0.00032	1.37792 ± 0.00032	1.37655 ± 0.00032	1.37622 ± 0.00032	1.37461 ± 0.00032
303.15 K, x2 = 0.9303	–	–	–	–	1.37934 ± 0.00031	1.37928 ± 0.00031	1.37792 ± 0.00031	1.37759 ± 0.00031	1.37597 ± 0.00031
303.15 K, x2 = 0.9391	–	–	–	–	1.37533 ± 0.00031	1.37531 ± 0.00031	1.37393 ± 0.00031	1.37361 ± 0.00031	1.37201 ± 0.00031
303.15 K, x2 = 0.951	–	–	–	–	1.36879 ± 0.00031	1.36873 ± 0.00031	1.36739 ± 0.00031	1.36708 ± 0.00031	1.36548 ± 0.00031
303.15 K, x2 = 0.9599	–	–	–	–	1.36294 ± 0.00031	1.36288 ± 0.00031	1.36155 ± 0.00031	1.36123 ± 0.00031	1.35966 ± 0.00031
303.15 K, x2 = 0.9708	–	–	–	–	1.35503 ± 0.00031	1.35497 ± 0.00031	1.35367 ± 0.00031	1.35335 ± 0.00031	1.35178 ± 0.00031
303.15 K, x2 = 0.979	–	–	–	–	1.35005 ± 0.00031	1.34999 ± 0.00031	1.34869 ± 0.00031	1.34838 ± 0.00031	1.34683 ± 0.00031
303.15 K, x2 = 0.9867	–	–	–	–	1.34407 ± 0.00031	1.34402 ± 0.00031	1.34275 ± 0.00031	1.34244 ± 0.00031	1.34092 ± 0.00031
303.15 K, x2 = 0.9936	–	–	–	–	1.33792 ± 0.00031	1.33786 ± 0.00031	1.3366 ± 0.00031	1.3363 ± 0.00031	1.33481 ± 0.00031
308.15 K, x2 = 0	1.46397 ± 0.00033	1.46043 ± 0.00033	1.45629 ± 0.00033	1.45285 ± 0.00033	1.45106 ± 0.00033	1.45099 ± 0.00033	1.44945 ± 0.00033	–	–
308.15 K, x2 = 0.1056	1.46262 ± 0.00033	1.4591 ± 0.00033	1.45496 ± 0.00033	1.45153 ± 0.00033	1.44974 ± 0.00033	1.44967 ± 0.00033	1.44814 ± 0.00033	–	–
308.15 K, x2 = 0.2069	1.46101 ± 0.00032	1.4575 ± 0.00032	1.45334 ± 0.00032	1.44996 ± 0.00032	1.44816 ± 0.00032	1.44809 ± 0.00032	1.44655 ± 0.00032	–	–
308.15 K, x2 = 0.3104	1.45847 ± 0.00032	1.45498 ± 0.00032	1.45085 ± 0.00032	1.44745 ± 0.00032	1.44566 ± 0.00032	1.44561 ± 0.00032	1.44407 ± 0.00032	–	–
308.15 K, x2 = 0.4844	1.45365 ± 0.00032	1.45024 ± 0.00032	1.44616 ± 0.00032	1.44282 ± 0.00032	1.44105 ± 0.00032	1.44098 ± 0.00032	1.43947 ± 0.00032	–	–
308.15 K, x2 = 0.5016	1.45268 ± 0.00032	1.44927 ± 0.00032	1.4452 ± 0.0003	1.44188 ± 0.00032	1.44011 ± 0.00032	1.44065 ± 0.00032	1.43853 ± 0.00032	–	–
308.15 K, x2 = 0.5952	1.44587 ± 0.00032	1.44251 ± 0.00032	1.43858 ± 0.00032	1.43529 ± 0.00032	1.43357 ± 0.00032	1.4335 ± 0.00032	1.43202 ± 0.00032	–	–
308.15 K, x2 = 0.6016	1.44608 ± 0.00032	1.44288 ± 0.00032	1.43766 ± 0.00032	1.43458 ± 0.00032	1.43283 ± 0.00032	1.43274 ± 0.00032	1.43225 ± 0.00032	–	–
308.15 K, x2 = 0.6788	1.43943 ± 0.00032	1.43608 ± 0.00032	1.43224 ± 0.00032	1.42901 ± 0.00032	1.42731 ± 0.00032	1.42725 ± 0.00032	1.42577 ± 0.00032	–	–
308.15 K, x2 = 0.7835	1.43059 ± 0.00032	1.42735 ± 0.00032	1.42362 ± 0.00032	1.42052 ± 0.00032	1.41887 ± 0.00032	1.4188 ± 0.00032	1.41735 ± 0.00032	–	–
308.15 K, x2 = 0.8184	1.4247 ± 0.00032	1.42147 ± 0.00032	1.41778 ± 0.00032	1.41468 ± 0.00032	1.41303 ± 0.00032	1.41297 ± 0.00032	1.41153 ± 0.00032	–	–
308.15 K, x2 = 0.8473	1.41822 ± 0.00032	1.41506 ± 0.00032	1.41139 ± 0.00032	1.40833 ± 0.00032	1.40675 ± 0.00032	1.40666 ± 0.00032	1.40524 ± 0.00032	–	–
308.15 K, x2 = 0.8719	1.41127 ± 0.00032	1.40816 ± 0.00032	1.40459 ± 0.00032	1.40157 ± 0.00032	1.39999 ± 0.00032	1.39993 ± 0.00032	1.39853 ± 0.00032	–	–
308.15 K, x2 = 0.8926	1.40352 ± 0.00032	1.40046 ± 0.00032	1.39696 ± 0.00032	1.39401 ± 0.00032	1.39245 ± 0.00032	1.39239 ± 0.00032	1.39102 ± 0.00032	–	–
308.15 K, x2 = 0.9106	1.39814 ± 0.00032	1.3951 ± 0.00034	1.39162 ± 0.00032	1.38868 ± 0.00032	1.38711 ± 0.00032	1.38705 ± 0.00032	1.38567 ± 0.00032	–	–
308.15 K, x2 = 0.9254	1.38807 ± 0.00032	1.38515 ± 0.00032	1.38181 ± 0.00032	1.37898 ± 0.00032	1.37744 ± 0.00032	1.37739 ± 0.00032	1.37602 ± 0.00032	–	–
308.15 K, x2 = 0.9303	1.38901 ± 0.00031	1.38605 ± 0.00031	1.38268 ± 0.00031	1.37985 ± 0.00031	1.37833 ± 0.00031	1.37828 ± 0.00031	1.37692 ± 0.00031	–	–
308.15 K, x2 = 0.9391	1.38539 ± 0.00031	1.38243 ± 0.00031	1.37908 ± 0.00031	1.37624 ± 0.00031	1.37471 ± 0.00031	1.37465 ± 0.00031	–	–	–
308.15 K, x2 = 0.951	1.37872 ± 0.00031	1.37585 ± 0.00031	1.37256 ± 0.00031	1.36977 ± 0.00031	1.36826 ± 0.00031	1.36821 ± 0.00031	–	–	–
308.15 K, x2 = 0.9599	1.37231 ± 0.00031	1.3695 ± 0.00031	1.36628 ± 0.00031	1.36351 ± 0.00031	1.36202 ± 0.00031	1.36197 ± 0.00031	–	–	–
308.15 K, x2 = 0.9708	1.36448 ± 0.00031	1.36175 ± 0.00031	1.35858 ± 0.00031	1.35587 ± 0.00031	1.35442 ± 0.00031	1.35436 ± 0.00031	–	–	–
308.15 K, x2 = 0.979	1.35959 ± 0.00031	1.3569 ± 0.00031	1.35382 ± 0.00031	1.35111 ± 0.00031	1.34968 ± 0.00031	1.34963 ± 0.00031	–	–	–
308.15 K, x2 = 0.9867	1.35319 ± 0.00031	1.35054 ± 0.00031	1.34746 ± 0.00031	1.34481 ± 0.00031	1.34338 ± 0.00031	1.34332 ± 0.00031	–	–	–
308.15 K, x2 = 0.9936	1.34702 ± 0.00031	1.34444 ± 0.00031	1.34138 ± 0.00031	1.33876 ± 0.00031	1.33735 ± 0.00031	1.3373 ± 0.00031	–	–	–
